Paper PMC9015526, “Mass Spectrometric Assays Reveal Discrepancies in Inhibition Profiles for the SARS‐CoV‐2 Papain‐Like Protease” (Chemmedchem, 2022)
Values joined by “and” are separate entries in the source; they are usually repeats but may differ in a detail not shown here. Equal entries are not always repeated. Where two headings read alike, the source gives them in different places.

Key:
[1] = target: T1, SARS‐CoV‐2 PL^pro (Severe acute respiratory syndrome coronavirus 2, UniProt P0DTD1); test: biochemical
[2] = target: T1, SARS‐CoV‐2 PL^pro; details: read-out: Reported IC50, cited from earlier work
[3] = target: T1, SARS‐CoV‐2 PL^pro; details: Fluorescence, cited from earlier work
[4] = 0.2 μM PL^pro, 2.0 μM nsp2/3 peptide 2, 50 mM Tris pH 8.0, n=2, mean±SD, read-out: SPE‐MS IC50

| Compound | IC50 ([1]; SPE‐MS IC50) | PL^pro inhibition in SPE‐MS assay (in words) [1] | also measured |
| --- | --- | --- | --- |
| CC(=O)Nc1ccc(C)c(C(=O)N[C@H](C)c2cccc3ccccc23)c1 [PL^pro inhibitor 6] | ~12.5 µM and 12.5 µM |  |  |
| COc1cc2ncnc(Nc3ccc(F)c(Cl)c3)c2cc1NC(=O)/C=C/CN1CCCCC1 [dacomitinib] |  | inactive | IC50 [1, 4]: > 50 µM; IC50 ([2]; FRET‐based assays, ref 8b): 3 to 5 µM |
| COCCn1c2c([n+](Cc3cnccn3)c1C)C(=O)c1ccccc1C2=O [YM‐155, sepantronium bromide] | > 50 µM |  |  |
| Cc1ccc(-n2sc3ccccc3c2=O)cc1 [PBIT, 2‐(para‐tolyl)benzo[d]isothiazol‐3(2H)‐one] | ~0.3 µM and 0.3 µM |  |  |
| CC(=O)OC[C@H]1O[C@@H]([S-])[C@H](OC(C)=O)[C@@H](OC(C)=O)[C@@H]1OC(C)=O.CCP(CC)CC.[Au+] [auranofin] |  | potently inhibit |  |
| CCOC(=O)C[C@H](NC(=O)[C@H](C)NC(=O)[C@@H](NC(=O)OCc1ccccc1)C(C)C)C(=O)COC(=O)c1c(Cl)cccc1Cl [SDZ‐224015] |  | does not inhibit | IC50 [1, 4]: > 50 µM |
| C[C@H]1COC2=C1C(=O)C(=O)c1c2ccc2c1CCCC2(C)C [cryptotanshinone] |  | did not, at least efficiently, inhibit |  |
| CN(C)C/C=C/C(=O)Nc1cc2c(Nc3ccc(F)c(Cl)c3)ncnc2cc1O[C@H]1CCOC1 [afatinib] | > 50 µM | inactive | IC50 [2]: 11 to 16 µM |
| Cbz‐RLRGG‐Amc |  |  | Km ([3]; ref 14): 6.9 ± 1.4 µM; Km ([3]; ref 18): 70.9 ± 10.2 µM |
| CC(C)(F)C[C@H](N[C@@H](c1ccc(-c2ccc(S(C)(=O)=O)cc2)cc1)C(F)(F)F)C(=O)NC1(C#N)CC1 [MK‐0822, odanacatib] |  | does not inhibit | IC50 [1, 4]: > 50 µM |
| Cc1cc(O)c2c(=O)c3c(O)cc(O)c4c5c(O)cc(O)c6c(=O)c7c(O)cc(C)c8c1c2c(c34)c(c78)c65 [Hypericin] | > 50 µM | did not inhibit |  |
